Results published in PMC8092326 (mBio, 2021).
“And” between values parts separate entries of the source, which are not always exact repeats. Equal values may be shown once. “Also recorded” adds a separate entry of the source. Read-outs that look alike come from different tables or passages of the source. *1 amine or outer side, *2 acyl side, *3 side chain or, on linkers, in order; H or OH if unused. Where a SMILES comes first, the peptide text is derived from it. Bridges are numbered along the chain shown (N, C = ends). Roman numbers before positions name the chains, in order. [ ]: non-standard residue; d: D form. Actinocin(9to1) = Cc1c2oc3c(C)ccc(C(=O)[*:1])c3nc-2c(C(=O)[*:2])c(N)c1=O; NMeV = CN[C@H](C(=O)O)C(C)C; Sar = CNCC(=O)O

Assays:
[1] = target: human ACE2-VLP spike protein interaction (UniProt P0DTC2+Q9BYF1); assay type: binding, SARS-CoV-2
[2] = target: T1, RBD-mimic1 peptide-ACE2 interaction (Homo sapiens, UniProt Q9BYF1); test: SPR competition (ABA injection) between compound and RBD-mimic1 peptide for immobilized ACE2; assay type: binding; settings: for inhibition at 1 µM: read-out: 1:1 competition between compound vs RBD-mimic1 peptide at 1 μM
T1 construct: purchased Assay Matrix; R&D Systems (ACE2); Mimotopes, Australia (peptide)

SARS-CoV-2 spike protein = target: T2, SARS-CoV-2 spike protein (Severe acute respiratory syndrome coronavirus 2, UniProt P0DTC2); test: biochemical; assay type: binding
T2 construct: made in house; host or cells: HEK 293 cells

[3] = cited from earlier work
[4] = system: SARS-CoV-2 infection of Vero-E6 cells; settings: for Screening data: 48 h
in vitro = settings: African green monkey
[5] = system: SARS-CoV-2 infection of Vero-E6 cells; test: Dose-response inhibition of SARS-CoV-2 infection of Vero-E6 cells (24 h, in situ ELISA); assay type: cell-based; settings: for IC50: Severe acute respiratory syndrome coronavirus 2, Vero C1008, 24 h infection, Vero-E6, MOI 0.12, read-out: IC50 (μM) Mean ± SD; for SI (selectivity index, CC50/IC50): Vero-E6 cells
human albumin = settings: cited from earlier work
human ACE2 = target: T3, human ACE2 (Homo sapiens, UniProt Q9BYF1); test: biochemical; assay type: binding; settings: immobilized recombinant human ACE2; ± one SD; read-out: KD (nM) determined by SPR
T3 construct: purchased Assay Matrix; R&D Systems

[6] = indicative of published Cmax values, ref not given, read-out: Cmax

T3 sequence (Q9BYF1 18-805): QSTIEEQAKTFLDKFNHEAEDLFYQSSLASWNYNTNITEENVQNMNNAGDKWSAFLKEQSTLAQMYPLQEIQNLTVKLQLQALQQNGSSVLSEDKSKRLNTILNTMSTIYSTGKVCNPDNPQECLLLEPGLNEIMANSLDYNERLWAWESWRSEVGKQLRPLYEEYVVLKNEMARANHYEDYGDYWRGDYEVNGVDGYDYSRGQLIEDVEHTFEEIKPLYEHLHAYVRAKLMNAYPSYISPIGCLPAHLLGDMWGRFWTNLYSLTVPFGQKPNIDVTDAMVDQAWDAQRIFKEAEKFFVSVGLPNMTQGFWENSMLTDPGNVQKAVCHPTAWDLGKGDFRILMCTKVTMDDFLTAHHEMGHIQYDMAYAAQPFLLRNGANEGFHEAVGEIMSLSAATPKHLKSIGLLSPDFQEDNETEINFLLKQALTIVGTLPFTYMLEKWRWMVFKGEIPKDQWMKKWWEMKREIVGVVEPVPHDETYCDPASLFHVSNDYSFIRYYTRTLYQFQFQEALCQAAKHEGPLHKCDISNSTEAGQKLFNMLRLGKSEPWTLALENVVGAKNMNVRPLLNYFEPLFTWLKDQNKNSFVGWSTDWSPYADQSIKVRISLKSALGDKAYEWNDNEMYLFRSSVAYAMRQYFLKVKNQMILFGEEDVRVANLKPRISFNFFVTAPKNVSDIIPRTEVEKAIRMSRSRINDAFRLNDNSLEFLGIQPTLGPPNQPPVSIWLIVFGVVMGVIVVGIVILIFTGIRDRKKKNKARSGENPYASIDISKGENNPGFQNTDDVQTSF
human ACE2-VLP spike protein interaction, sequence (Q9BYF1 18-740, one chain of several): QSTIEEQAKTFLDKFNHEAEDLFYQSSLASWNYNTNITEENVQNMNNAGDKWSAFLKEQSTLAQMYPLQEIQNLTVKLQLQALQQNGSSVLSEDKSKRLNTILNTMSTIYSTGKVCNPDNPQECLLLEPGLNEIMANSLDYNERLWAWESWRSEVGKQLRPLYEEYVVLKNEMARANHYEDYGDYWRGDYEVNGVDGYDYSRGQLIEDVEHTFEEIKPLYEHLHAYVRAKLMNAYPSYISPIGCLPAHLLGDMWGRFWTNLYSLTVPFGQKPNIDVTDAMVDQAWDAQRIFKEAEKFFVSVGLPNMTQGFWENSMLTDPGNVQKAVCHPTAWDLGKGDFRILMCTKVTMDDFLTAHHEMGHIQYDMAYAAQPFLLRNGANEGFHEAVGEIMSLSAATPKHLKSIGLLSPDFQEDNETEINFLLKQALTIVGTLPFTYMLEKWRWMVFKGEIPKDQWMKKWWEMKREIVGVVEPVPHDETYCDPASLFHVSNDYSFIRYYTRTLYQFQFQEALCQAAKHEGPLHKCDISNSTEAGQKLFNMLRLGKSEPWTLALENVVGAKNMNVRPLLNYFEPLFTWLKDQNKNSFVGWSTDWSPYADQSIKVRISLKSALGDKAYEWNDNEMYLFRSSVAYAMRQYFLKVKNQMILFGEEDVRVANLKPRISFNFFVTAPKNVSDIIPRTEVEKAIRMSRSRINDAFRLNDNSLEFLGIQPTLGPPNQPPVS
T1 sequence (Q9BYF1 18-740 limits assumed): as the sequence (Q9BYF1 18-740, one chain of several) above

Molecule | 1:1 Competition between compound vs CoV2 VLP [1] | Blocking (%) [1] | Screening result at the highest concentration tested [4] | CC50 (in vitro) [µM] | IC50 [5] [µM] | Cmax [3, 6] [nM] | inhibition at 1 µM [2] [%] | Kd (human ACE2) | other results
Epigallocatechin-3-gallate | 33.8% ± 4.67 |  |  |  |  |  |  |  | 1:1 competition between compound vs RBD-mimic1 peptide at 1 μM ([2]; 1:1 ratio at 1 μM, immobilized ACE2): 28.9% ± 1.43
Cc1c2oc3c(C)ccc(C(=O)N[C@@H]4C(=O)N[C@H](C(C)C)C(=O)N5CCC[C@H]5C(=O)N(C)CC(=O)N(C)[C@@H](C(C)C)C(=O)O[C@@H]4C)c3nc-2c(C(=O)N[C@@H]2C(=O)N[C@H](C(C)C)C(=O)N3CCC[C@H]3C(=O)N(C)CC(=O)N(C)[C@@H](C(C)C)C(=O)O[C@@H]2C)c(N)c1=O [Dactinomycin] (I: T[dV]P[Sar][NMeV] / II: T[dV]P[Sar][NMeV]; ester I:1-I:C, II:1-II:C; linker I:N-II:N via Actinocin(9to1)) |  | 69.7 ± 1.8% |  |  |  |  |  |  | Initial SPR screening for binding to the VLP spike protein (SARS-CoV-2 spike protein): binding
CS(=O)(=O)c1cccc(C[C@H](NC(=O)c2c(Cl)cc3c(c2Cl)CCN(C(=O)c2ccc4ccoc4c2)C3)C(=O)O)c1 [Sodium lifitegrast] |  | 99.8% and 99.8 ± 6.4% | active | > 5000 | 1300 |  |  |  | Cmax ([3]; in blood, indicative of published Cmax values, ref not given, read-out: Cmax in blood): 2.7 ± 2.1 nM; Cmax ([3]; in tears, indicative of published Cmax values, ref not given, read-out: Cmax in tears (converted)): 143000 nM; Cytotoxicity toward Vero-E6 cells (Vero-E6 cells): noncytotoxic; Cytotoxicity in screening at the highest concentration tested [4]: no apparent cytotoxicity; Kd (SARS-CoV-2 spike protein): 0.00192 µM; SI (selectivity index, CC50/IC50) [5]: >3.9
Cc1ccc(C(=O)Nc2ccc(S(=O)(=O)O)c3cc(S(=O)(=O)O)cc(S(=O)(=O)O)c23)cc1NC(=O)c1cccc(NC(=O)Nc2cccc(C(=O)Nc3cc(C(=O)Nc4ccc(S(=O)(=O)O)c5cc(S(=O)(=O)O)cc(S(=O)(=O)O)c45)ccc3C)c2)c1 [Suramin] |  |  |  | > 1000 | 46.2 ± 1.6 | 1890 |  |  | Antiviral potency [4]: 100%; SI (selectivity index, CC50/IC50) [5]: >21.6
Cc1cc(-c2ccc(/N=N/c3ccc4c(S(=O)(=O)O)cc(S(=O)(=O)O)c(N)c4c3O)c(C)c2)ccc1/N=N/c1ccc2c(S(=O)(=O)O)cc(S(=O)(=O)O)c(N)c2c1O [Evans blue] | 98.9% ± 6.43 | 78.2 ± 6.3% | active | > 1000 | 28.1 ± 1.2 |  | 99.8 | 1.6 nM and 1.63 nM | Cytotoxicity toward Vero-E6 cells (Vero-E6 cells; at 1,000 μM): no cytotoxicity; Cytotoxicity in screening at the highest concentration tested [4]: no apparent cytotoxicity; Initial SPR screening for binding to the VLP spike protein (SARS-CoV-2 spike protein): binding; Affinity for human albumin (human albumin): low μM range; Inhibition of the RBD-mimic1 peptide-ACE2 interaction (in words) ([2]; 1:1 ratio at 1 μM): complete inhibition
CC#CC(=O)N1CCC[C@H]1c1nc(-c2ccc(C(=O)Nc3ccccn3)cc2)c2c(N)nccn12 [Acalabrutinib] | 81.2% ± 12.9 |  | toxic | 406 ± 21.2 | 184 | 1770 | 77.4 | 25.7 ± 0.91 nM | Screening data ([4]; 100 μM): 100 μM: inactive; SI (selectivity index, CC50/IC50) [5]: 2.2
CCc1c2c(nc3ccc(OC(=O)N4CCC(N5CCCCC5)CC4)cc13)-c1cc3c(c(=O)n1C2)COC(=O)[C@]3(O)CC [Irinotecan] | 100% ± 9.17 |  |  |  |  |  | 100 | 825 ± 112 nM | Toxicity to Vero-E6 cells (in words, discussion) [4]: toxic; Inhibition of the RBD-mimic1 peptide-ACE2 interaction (in words) ([2]; 1:1 ratio at 1 μM): complete inhibition; also recorded: complete blocking
COc1cc(-c2ccc(/N=N/c3ccc4c(S(=O)(=O)O)cc(S(=O)(=O)O)c(N)c4c3O)c(OC)c2)ccc1/N=N/c1ccc2c(S(=O)(=O)O)cc(S(=O)(=O)O)c(N)c2c1O [Chicago sky blue] | 7.29% ± 1.64 |  |  |  |  |  | 2.47 | 349 ± 29.8 nM | 
Cc1ccc(NC(=O)C2(c3ccc4c(c3)OC(F)(F)O4)CC2)nc1-c1cccc(C(=O)O)c1 [Lumacaftor] |  | 71.4 ± 3.1% | active | 314 ± 22.7 | 84 ± 3.7 | 5420 |  |  | Cytotoxicity in screening at the highest concentration tested [4]: no apparent cytotoxicity; Kd (SARS-CoV-2 spike protein): 1.51 µM; SI (selectivity index, CC50/IC50) [5]: 3.7
C[C@H]1O[C@@H](O[C@H]2[C@@H](O)C[C@H](O[C@H]3[C@@H](O)C[C@H](O[C@H]4CC[C@@]5(C)[C@H](CC[C@@H]6[C@@H]5CC[C@]5(C)[C@@H](C7=CC(=O)OC7)CC[C@]65O)C4)O[C@@H]3C)O[C@@H]2C)C[C@H](O)[C@@H]1O [Digitoxin] | 23.6% ± 4.25 |  |  |  |  |  | 25.1 | 1480 ± 87.6 nM | 
CC1(C)CCC(CN2CCN(c3ccc(C(=O)NS(=O)(=O)c4ccc(NCC5CCOCC5)c([N+](=O)[O-])c4)c(Oc4cnc5[nH]ccc5c4)c3)CC2)=C(c2ccc(Cl)cc2)C1 [Venetoclax] | 69.1% ± 7.31 |  | toxic | 4.9 ± 2.2 |  | 2400 ± 1300 | 66.3 | 290 ± 31.1 nM | Screening result at lower concentrations [4]: inactive; Screening data ([4]; 10 μM): 10 μM: 40 % active
COC[C@H]1C[C@@H](c2ncc(-c3ccc4c(c3)COc3cc5c(ccc6nc([C@@H]7CC[C@H](C)N7C(=O)[C@@H](NC(=O)OC)C(C)C)[nH]c65)cc3-4)[nH]2)N(C(=O)[C@H](NC(=O)OC)c2ccccc2)C1 [Velpatasvir] | 68.1% ± 9.44 |  | toxic |  |  | 293 ± 61.2 | 61.4 | 24.9 ± 4.24 nM | Toxicity to Vero-E6 cells (in words, discussion) [4]: toxic; Screening data ([4]; 100 μM): 500 μM: toxic, 100 μM: inactive; Screening data ([4]; 500 μM): 500 μM: toxic, 100 μM: inactive
C[C@H]1O[C@@H](O[C@H]2[C@@H](O)C[C@H](O[C@H]3[C@@H](O)C[C@H](O[C@H]4CC[C@@]5(C)[C@H](CC[C@@H]6[C@@H]5C[C@@H](O)[C@]5(C)[C@@H](C7=CC(=O)OC7)CC[C@]65O)C4)O[C@@H]3C)O[C@@H]2C)C[C@H](O)[C@@H]1O [Digoxin] | 31.5% ± 4.55 |  |  |  |  |  | 27.6 | 1250 ± 97.2 nM | 
N[C@@H](Cc1ccc(O)c(O)c1)C(=O)O [Levodopa] | 42.1% ± 5.17 |  |  |  |  |  | 36.4 | 13.6 ± 0.97 nM | 
COc1ccc2c(O[C@@H]3C[C@H]4C(=O)N[C@]5(C(=O)NS(=O)(=O)C6CC6)C[C@H]5/C=C\CCCCN(C)C(=O)[C@@H]4C3)cc(-c3nc(C(C)C)cs3)nc2c1C [Simeprevir] |  | 88.6 ± 7.2% | toxic | 16.4 ± 0.8 |  | 2590 |  |  | Toxicity to Vero-E6 cells (in words, discussion) [4]: toxic; Screening data ([4]; 10 μM): 100 μM: toxic, 10 μM: inactive; Screening data ([4]; 100 μM): 100 μM: toxic, 10 μM: inactive
COC(=O)N[C@H](C(=O)N1CC2(CC2)C[C@H]1c1ncc(-c2ccc3c(c2)C(F)(F)c2cc(-c4ccc5nc([C@@H]6[C@H]7CC[C@H](C7)N6C(=O)[C@@H](NC(=O)OC)C(C)C)[nH]c5c4)ccc2-3)[nH]1)C(C)C [Ledipasvir] | 84.9% ± 7.3 |  |  | > 1000 |  | 406 | 79.4 | 417 ± 50.7 nM | Toxicity to Vero-E6 cells (in words, discussion) [4]: toxic; Screening data ([4]; 400 μM): 400 μM: inactive
Cc1cc(O)c(C(=O)N[C@@H](C(=O)N[C@@H]2C(=O)N3C(C(=O)O)=C(CSc4nnnn4C)CS[C@H]23)c2ccc(O)cc2)cn1 [Cefpiramide] |  | 81.9% and 81.9 ± 8.4% | active | > 1000 | > 1500 | 88000 |  |  | Cmax ([3]; intravenous, maximum dose 2,000 mg, single dose, read-out: Cmax): 205000 nM; Cytotoxicity in screening at the highest concentration tested [4]: no apparent cytotoxicity; Screening data ([4]; 800 μM): 800 μM: ∼50% active; Initial SPR screening for binding to the VLP spike protein (SARS-CoV-2 spike protein): binding; Kd (SARS-CoV-2 spike protein): 0.33 µM; Activity against SARS-CoV-2 infection in dose-response experiments ([5]; at […]): inactive
CO[C@H]1C[C@@H]2CC[C@@H](C)[C@@](O)(O2)C(=O)C(=O)N2CCCC[C@H]2C(=O)O[C@H]([C@H](C)C[C@@H]2CC[C@H](n3cnnn3)[C@H](OC)C2)CC(=O)[C@H](C)/C=C(\C)[C@@H](O)[C@@H](OC)C(=O)[C@H](C)C[C@H](C)/C=C/C=C/C=C/1C [Zotarolimus] | 71.6% ± 6.47 |  |  |  |  |  | 69.4 | 2760 ± 178 nM | 
